Starred links: 1 amine or outer side, 2 acyl side, 3 side chain; linkers in the order of their positions; H or OH if unused. Residues, ends and D or L forms follow the SMILES beside them. Groups on a side chain read outwards from the residue. *: point of attachment. Glutaryl = O=C(CCCC(=O)[*:2])[*:1]; NHNH2 = NN*
Legend:
[1] = tested on: HCT116 cells expressing EGFP; assay: EGFP-targeting siRNA delivery (GFP silencing vs siMOCK), HCT116; format: cell-based
Procedure: (§1) To generate an EGFP expressing HeLa cell line, HeLa cells were transfected with EGFP pDNA (pEGFP-C1, Clontech) and stable transfectants were selected with 400 μg/mL of G-418 (Millipore). Green clones were selected by epifluorescence microscopy and tested for EGFP expression stability through several passages. […] All other EGFP-expressing cell lines were obtained in a similar way from parent non-EGFP-expressing cell lines.
Cells expressing EGFP were seeded in a 96 well plate the day before the experiment at a concentration of 50,000 cell/mL (100 μL/w) in DMEM+10% FBS+1% Gln-Abt. For robotic library screening, the delivery of an EGFP-targeting siRNA (EGFP: enhanced green fluorescent protein, Ambion® Silencer® GFP Positive Control siRNA (siGFP) (AM4626)) in six different cell lines expressing EGFP was performed. Amphiphilic molecules stock solutions in DMSO were diluted with DMEM and freshly mixed with siRNA stock solutions in DMEM prior to transfection experiments, to afford several complexes at different amphiphile concentration (2-10 μM) while maintaining a constant final siRNA concentration of 30 nM. The mixture was shaken for 30 min at room temperature (rt) before the addition to the cells. The cell medium was aspirated, and cells were washed twice with PBS. Finally, 50 μL of the solution of siRNA/amphiphile complexes were added to the cells and incubated for 4 h. After transfection, the medium was replaced by 100 μL of fresh DMEM supplemented with 10% FBS. The fluorescence knockdown was quantified after 72 h in a plate reader, by comparison with cells transfected with a non-targeting siRNA control (siMOCK, Silencer™ Negative Control No. 1 siRNA (siMOCK) (AM4611)). EGFP knockdown was compared with Lipofectamine® RNAiMAX silencing efficiency (30-60% depending on cell line, defined with a numeric value in the below tables). All experiments were done in triplicate.
(§2) Tables 1-7: RLuc (pDNA) or EGFP (mRNA) expression levels were normalized to Lipofectamine reagents (value=1) and expressed as fold-times signal increase. In the case of siRNA, the siRNA treated cells fluorescence was compared with siMOCK control fluorescence, while Cas9-RNP mediated knockout was measured against the fluorescence of untreated cells. In both siRNA and Cas9-RNP, values are expressed as % fluorescence reduction. Amphiphile concentration was 5 μM in all cases. All experiments were performed in triplicate.
Tables 20-25 show the mean (triplicates) percentage of GFP-silencing, accounted by fluorescence intensity decrease relative to a non-targeting siRNA (siMOCK) control, measured after the transfection of siRNA by different amphiphiles at different concentrations in a variety of cell lines. Background values, accounted by untreated control cells, were subtracted for processing.

[2] = tested on: Hela cells expressing EGFP; assay: Cas9-RNP delivery against EGFP (gene editing, plate reader), HeLa; format: cell-based; settings: for % GFP silencing due to gene editing (Cas9-RNP): HeLa
Procedure: as §1
Cells expressing EGFP were seeded in a 96 well plate the day before the experiment at a concentration of 50,000 cell/mL (100 μL/w) in DMEM+10% FBS+1% Gln-Abt. For robotic library screening, the delivery of Cas9-RNP against EGFP (RNP designed to knock-out the gene encoding for the enhanced green fluorescent protein (EGFP)) was performed. For RNP assembly, 9.2 μL of crRNA and 9.2 μL of tracrRNA were mixed in 211.6 μL of Nuclease-Free Duplex Buffer (IDT), incubated for 5 min at 95° C. and slowly cooled at rt (see I. Lostalé-Seijo, et al. Peptide/Cas9 nanostructures for ribonucleoprotein cell membrane transport and gene edition, Chem. Sci., 2017). Cas9 protein was dissolved in DMEM at a final concentration of 4 μM and equal volumes of the RNA complex and Cas9 were mixed and incubated for 5 min at rt. 75 μL of the corresponding amphiphile concentrations were added to 5 μL of RNP at 2 μM. The mixture was shaken for 30 min at room temperature before the addition to the cells. The cell medium was aspirated, and cells were washed twice with PBS. Cells were covered with 30 μL of DMEM and 20 μL of the RNP/amphiphile complexes were added to the cells (final peptide concentrations=2.5, 5 and 10 μM; final Cas9-RNP concentration=50 nM) and incubated for 4 h. After the incubation, the medium was replaced by 100 μL of fresh DMEM supplemented with 10% FBS. The total EGFP fluorescence was quantified after 72 h in a plate reader (FIG. 2, Table 1 (right) and Table 6). All experiments were done in triplicate.
as §2
Tables 26-31 show the mean (triplicates) percentage of gene editing, accounted by GFP fluorescence intensity decrease (% of reduction), measured after the transfection of Cas9-RNP by different amphiphiles at different concentrations in a variety of cell lines. Background values, accounted by untreated control cells, were subtracted for processing.

[3] = Petroselinyl, 10 μM, Hela cells
[4] = Petroselinyl, 15 μM, Hela cells

| Compound | percentage of GFP-silencing relative to siMOCK ([1]; Dodecanal, 5 μM) | percentage of GFP-silencing relative to siMOCK ([1]; Dodecanal, 10 μM) | percentage of GFP-silencing relative to siMOCK ([1]; Myristoleyl, 10 μM) | percentage of GFP-silencing relative to siMOCK ([1]; Myristoleyl, 15 μM) | percentage of GFP-silencing relative to siMOCK ([1]; Oleyl, 5 μM) | percentage of GFP-silencing relative to siMOCK ([1]; Oleyl, 15 μM) | percentage of GFP-silencing relative to siMOCK ([1]; Palmitoleyl, 10 μM) | percentage of GFP-silencing relative to siMOCK ([1]; Palmitoleyl, 15 μM) | percentage of GFP-silencing relative to siMOCK ([1]; Petroselinyl, 5 μM) | percentage of GFP-silencing relative to siMOCK ([1]; Petroselinyl, 15 μM) | percentage of gene editing, GFP fluorescence intensity decrease (% of reduction) ([2]; Dodecanal, 10 μM, HeLa cells) | percentage of gene editing, GFP fluorescence intensity decrease (% of reduction) ([2]; Dodecanal, 15 μM, Hela cells) | percentage of gene editing, GFP fluorescence intensity decrease (% of reduction) ([2]; Myristoleyl, 5 μM, HeLa cells) | percentage of gene editing, GFP fluorescence intensity decrease (% of reduction) ([2]; Myristoleyl, 10 μM, HeLa cells) | percentage of gene editing, GFP fluorescence intensity decrease (% of reduction) ([2]; Myristoleyl, 15 μM, Hela cells) | percentage of gene editing, GFP fluorescence intensity decrease (% of reduction) ([2]; Oleyl, 10 μM, HeLa cells) | percentage of gene editing, GFP fluorescence intensity decrease (% of reduction) ([2]; Palmitoleyl, 5 μM, HeLa cells) | percentage of gene editing, GFP fluorescence intensity decrease (% of reduction) ([2]; Palmitoleyl, 10 μM, HeLa cells) | percentage of gene editing, GFP fluorescence intensity decrease (% of reduction) ([2]; Palmitoleyl, 15 μM, Hela cells) | percentage of gene editing, GFP fluorescence intensity decrease (% of reduction) ([2]; Dodecanal, 5 μM, Hela cells) | further results |
| --- | --- | --- | --- | --- | --- | --- | --- | --- | --- | --- | --- | --- | --- | --- | --- | --- | --- | --- | --- | --- | --- |
| CC(=O)N[C@@H](CCCNC(=N)N)C(=O)N[C@@H](CCCCNC(=O)CCCC(=O)NN)C(=O)N[C@@H](Cc1c[nH]cn1)C(=O)N[C@@H](CCCNC(=N)N)C(=O)N[C@@H](CCCCNC(=O)CCCC(=O)NN)C(=O)N[C@@H](CCCCNC(=O)CCCC(=O)NN)C(=O)N[C@@H](Cc1c[nH]cn1)C(N)=O [7.3(L-H), Ac-RK*HRK*K*H-NH2] (Ac-RK([Glutaryl-NHNH2])HRK([Glutaryl-NHNH2])K([Glutaryl-NHNH2])H-NH2) | −10% | 5% | 49% | 3% | 24% | 46% | 56% | 38% | 4% | 43% | −8% | −21% | 39% | 22% | 18% | 13% | 55% | 28% | 17% | – | percentage of GFP-silencing relative to siMOCK ([1]; Palmitoleyl, 5 μM): 21%; percentage of GFP-silencing relative to siMOCK ([1]; Petroselinyl, 10 μM): 24%; percentage of gene editing, GFP fluorescence intensity decrease (% of reduction) ([2]; Oleyl, 5 μM, HeLa cells): 16%; percentage of gene editing, GFP fluorescence intensity decrease (% of reduction) ([2]; Oleyl, 15 μM, Hela cells): 22%; percentage of gene editing, GFP fluorescence intensity decrease (% of reduction) ([2]; Petroselinyl, 5 μM, HeLa cells): 46%; percentage of gene editing, GFP fluorescence intensity decrease (% of reduction) [2, 3]: 14% |
| Ac-RK*LRRLLRK*-NH2 (Ac-RK(NHNH2)LRRLLRK(NHNH2)-NH2; not fully specified; printed as Ac-RK*LRRLLRK*-NH2; also: K*2,K*9: native or modified lysine (ε-amide to a linker)) [Peptide 9.2] | −7% | 3% | −9% | −38% | – | – | – | – | – | – | 14% | 47% | −12% | – | 52% | – | – | – | – | 6% | percentage of GFP-silencing relative to siMOCK ([1]; Dodecanal, 15 μM): 11% |
| Ac-RK*LRRK*L-NH2 (Ac-RK(NHNH2)LRRK(NHNH2)L-NH2; not fully specified; printed as Ac-RK*LRRK*L-NH2; also: K*2,K*6: native or modified lysine (ε-amide to a linker)) [Peptide 7.2] | −20% | −5% | 19% | −22% | – | – | – | – | – | – | −22% | −26% | −7% | −18% | −6% | – | – | – | – | 6% | – |
| Ac-RRLK*RLK*RRLK*RL-NH2 [Peptide 13.3] | 45% | – | – | −5% | 55% | 14% | 31% | 28% | 1% | – | – | – | 29% | – | 86% | – | 18% | 68% | 80% | – | percentage of GFP-silencing relative to siMOCK ([1]; Dodecanal, 15 μM): 31%; percentage of GFP-silencing relative to siMOCK ([1]; Oleyl, 10 μM): 46%; % GFP silencing due to gene editing (Cas9-RNP) ([2]; 5 μM, Ole tail): 76%; % GFP silencing due to gene editing (Cas9-RNP) ([2]; 5 μM, Pal tail): 68%; % GFP silencing due to gene editing (Cas9-RNP) ([2]; 5 μM, Pet tail): 63%; percentage of gene editing, GFP fluorescence intensity decrease (% of reduction) [2, 4]: 85% |
| Ac-RK*LRK*K*L-NH2 (Ac-RK(NHNH2)LRK(NHNH2)K(NHNH2)L-NH2; not fully specified; printed as Ac-RK*LRK*K*L-NH2; also: K*2,K*5,K*6: native or modified lysine (ε-amide to a linker)) [Peptide 7.3] | 8% | 14% | – | 27% | – | – | 23% | – | 15% | 11% | 2% | −3% | 24% | 27% | 25% | −9% | 20% | 13% | – | 10% | percentage of gene editing, GFP fluorescence intensity decrease (% of reduction) ([2]; Petroselinyl, 5 μM, HeLa cells): 6%; percentage of gene editing, GFP fluorescence intensity decrease (% of reduction) [2, 3]: 11%; percentage of gene editing, GFP fluorescence intensity decrease (% of reduction) [2, 4]: 33% |
